Experimental data reported in ChEMBL document CHEMBL4665893, “Scalable Synthesis, In Vitro cccDNA Reduction, and In Vivo Antihepatitis B Virus Activity of a Phosphonomethoxydeoxythreosyl Adenine Prodrug” (J Med Chem, 2020).
Activity calls are given as the source filed them. The rule behind the calls is not given here.

How the values were obtained:
Hepatitis B virus [1] = test: Antiviral activity against ETV-resistant and adenovirus AdH294-7LR harboring wild-type HBV infected in human HepG2 cells assessed as viral replicative intermediate DNA level at 40 nM incubated for 5 days by Southern blot analysis (reference value: 100%); assay type: functional; details: time 5 day
Hepatitis B virus [2] = test: Antiviral activity against ETV-resistant and adenovirus AdH294-7LR harboring wild-type HBV infected in human HepG2 cells assessed as viral replicative intermediate DNA level at 1100 nM incubated for 5 days by Southern blot analysis (reference value: 100%); assay type: functional; details: time 5 day
[3] = Toxicity in HBV infected hydrodynamic injection C57BL/6 mouse model assessed as effect on body weight at 0.6 to 60 mg/kg, po QD for 6 days; assay type: organism-based; details: in vivo, 144 h, dose 0.6-60 mg/kg, time 6 day
Hepatitis B virus [4] = test: Antiviral activity against ETV-resistant and adenovirus AdH294-7LR harboring wild-type HBV infected in human HepG2 cells assessed as viral replicative intermediate DNA level at 10000 nM incubated for 5 days by Southern blot analysis (reference value: 100%); assay type: functional; details: time 5 day
[5] = Toxicity in C57BL/6 mouse assessed as induction of body weight loss at 60 mg/kg, po for 14 days relative to control; assay type: organism-based; details: in vivo, 336 h, time 14 day
[6] = Selectivity index, […] against HBV infected in human HepDE19 cells to CC50 for toxicity in human HepDE19 cells; assay type: cell-based; details: read-out: Ratio CC50/IC50
[7] = Toxicity in C57BL/6 female mouse assessed as reduction in erythrocytes level at 60 mg/kg, po for 14 days by hematology analysis; assay type: organism-based; details: in vivo, 336 h, time 14 day
[8] = Toxicity in C57BL/6 male mouse assessed as reduction in lymphocytes level at 60 mg/kg, po for 14 days by hematology analysis; assay type: organism-based; details: in vivo, 336 h, time 14 day
[9] = Toxicity in C57BL/6 female mouse assessed as reduction in hemoglobin level at 60 mg/kg, po for 14 days by hematology analysis; assay type: organism-based; details: in vivo, 336 h, time 14 day
[10] = Plasma concentration in C57BL/6 mouse at 6 mg/kg, po administered as single dose after 0.25 to 24 hrs by LC/MS/MS analysis; assay type: ADME, organism-based; details: in vivo, time 0.25-24 hrs
[11] = Toxicity in C57BL/6 female mouse assessed as effect on clinical chemistry level at 60 mg/kg, po for 14 days; assay type: organism-based; details: in vivo, 336 h, time 14 day
[12] = Genotoxicity in Salmonella typhimurium at 1 uM by Ames test; assay type: toxicity; details: salmonella enterica subsp. enterica serovar typhimurium
[13] = Genotoxicity in Salmonella typhimurium TA100 assessed as increase in number of spontaneous revertants colonies by Ames test; assay type: toxicity; details: salmonella enterica subsp. enterica serovar typhimurium, 1 µM
Hepatitis B virus [14] = test: Antiviral activity against adenovirus AdH294-WT harboring wild-type HBV genotype D accession #V01460 infected in human HepG2 cells assessed as reduction in viral replicative intermediate DNA level at 4 nM incubated for 5 days by Southern blot analysis (reference value: 100%); assay type: functional; set-up: scale not given: the % may be the effect or the level left; details: time 5 day
Hepatitis B virus [15] = test: Antiviral activity against adenovirus AdH294-WT harboring wild-type HBV genotype D accession #V01460 infected in human HepG2 cells assessed as reduction in viral replicative intermediate DNA level at 10000 nM incubated for 5 days by Southern blot analysis (reference value: 100%); assay type: functional; set-up: scale not given: the % may be the effect or the level left; details: time 5 day
Hepatitis B virus [16] = test: Antiviral activity against ETV-resistant and adenovirus AdH294-7LR harboring wild-type HBV infected in human HepG2 cells assessed as viral replicative intermediate DNA level at 3300 nM incubated for 5 days by Southern blot analysis (reference value: 100%); assay type: functional; details: time 5 day
[17] = Toxicity in C57BL/6 female mouse assessed as increase in thymus weight level at 60 mg/kg, po for 14 days; assay type: organism-based; details: in vivo, 336 h, time 14 day
[18] = Toxicity in C57BL/6 male mouse assessed as reduction in food consumption loss at 60 mg/kg, po for 11 days relative to control; assay type: organism-based; details: in vivo, 264 h, time 11 day
[19] = Toxicity in C57BL/6 male mouse assessed as increase in LDL-C level at 60 mg/kg, po for 14 days; assay type: organism-based; details: in vivo, 336 h, time 14 day
[20] = Genotoxicity in Salmonella typhimurium TA1537 assessed as increase in number of spontaneous revertants colonies by Ames test; assay type: toxicity; details: salmonella enterica subsp. enterica serovar typhimurium, 1 µM
Hepatitis B virus [21] = test: Antiviral activity against ETV-resistant and adenovirus AdH294-7LR harboring wild-type HBV infected in human HepG2 cells assessed as reduction in viral replicative intermediate DNAs at 4 to 1000 nM incubated for 5 days by Southern blot analysis; assay type: functional, organism-based; details: time 5.0 day
Hepatitis B virus [22] = test: Antiviral activity against adenovirus AdH294-WT harboring wild-type HBV genotype D accession #V01460 infected in human HepG2 cells assessed as reduction in viral replicative intermediate DNAs incubated for 5 days by Southern blot analysis; assay type: functional, organism-based; details: genotype D accession #V01460, HepG2, 120 h
Hepatitis B virus [23] = test: Antiviral activity against ETV-resistant and adenovirus AdH294-7LR harboring wild-type HBV infected in human HepG2 cells assessed as viral replicative intermediate DNA level at 13 nM incubated for 5 days by Southern blot analysis (reference value: 100%); assay type: functional; details: time 5 day
[24] = Toxicity in C57BL/6 male mouse assessed as effect on organ weight level at 60 mg/kg, po for 14 days; assay type: organism-based; details: in vivo, 336 h, time 14 day
[25] = Toxicity in C57BL/6 female mouse assessed as reduction in hematocrit level at 60 mg/kg, po for 14 days by hematology analysis; assay type: organism-based; details: in vivo, 336 h, time 14 day
Hepatitis B virus [26] = test: Antiviral activity against adenovirus AdH294-WT harboring wild-type HBV genotype D accession #V01460 infected in human HepG2 cells assessed as reduction in viral replicative intermediate DNA level at 13 nM incubated for 5 days by Southern blot analysis (reference value: 100%); assay type: functional; set-up: scale not given: the % may be the effect or the level left; details: time 5 day
[27] = Genotoxicity in Salmonella typhimurium TA1535 assessed as increase in number of spontaneous revertants colonies by Ames test; assay type: toxicity; details: salmonella enterica subsp. enterica serovar typhimurium, 1 µM
[28] = Toxicity in C57BL/6 male mouse assessed as effect on clinical chemistry level at 60 mg/kg, po for 14 days; assay type: organism-based; details: in vivo, 336 h, time 14 day
Hepatitis B virus [29] = test: Antiviral activity against adenovirus AdH294-WT harboring wild-type HBV genotype D accession #V01460 infected in human HepG2 cells assessed as reduction in viral replicative intermediate DNA level at 120 nM incubated for 5 days by Southern blot analysis (reference value: 100%); assay type: functional; set-up: scale not given: the % may be the effect or the level left; details: time 5 day
Hepatitis B virus [30] = test: Antiviral activity against HBV infected hydrodynamic injection C57BL/6 mouse model assessed as reduction in serum HBV DNA level at 0.6 to 60 mg/kg, po QD for 6 days by qPCR analysis; assay type: functional, organism-based; details: dose mg/kg 0.6-60, time 6.0 day
[31] = Toxicity in C57BL/6 female mouse assessed as reduction in mean corpuscular volume level at 60 mg/kg, po for 14 days by hematology analysis; assay type: organism-based; details: in vivo, 336 h, time 14 day
Hepatitis B virus [32] = test: Antiviral activity against adenovirus AdH294-WT harboring wild-type HBV genotype D accession #V01460 infected in human HepG2 cells assessed as reduction in viral replicative intermediate DNA level at 3300 nM incubated for 5 days by Southern blot analysis (reference value: 100%); assay type: functional; set-up: scale not given: the % may be the effect or the level left; details: time 5 day
Hepatitis B virus [33] = test: Antiviral activity against ETV-resistant and adenovirus AdH294-7LR harboring wild-type HBV infected in human HepG2 cells assessed as viral replicative intermediate DNA level at 4 nM incubated for 5 days by Southern blot analysis (reference value: 100%); assay type: functional; details: time 5 day

In the case of `CC(C)CCOC(=O)C[C@H](NP(=O)(CO[C@H]1CO[C@@H](n2cnc3c(N)ncnc32)C1)Oc1ccccc1)C(=O)OCCC(C)C` (mixture of isomers), the Activity (Hepatitis B virus [1]) is reported as 59.1%, the Activity (Hepatitis B virus [2]) is reported as 18.1% and the Activity [3] is reported as “Non-Toxic”. It also gave an Activity (Hepatitis B virus [4]) of 5.9%, an Activity [5] of 4% and a selectivity ratio [6] of 37. The Activity [7] was “Non-Toxic”, the Activity [8] was “Toxic” and the Activity [9] was “Non-Toxic”. For the same compound, the Cp [10] was < 1.01 ng/mL, the Activity [11] was “Non-Toxic” and the Activity [12] was “Non-Toxic”. For the same compound, the Activity [13] was “Non-Toxic”, the Activity (Hepatitis B virus [14]) was 39.1% and the Activity (Hepatitis B virus [15]) was 0%. The Activity (Hepatitis B virus [16]) was 11.7%, the Activity [17] was “Toxic” and the Activity [18] was “Toxic”. The Activity [19] was “Toxic”, the Activity [20] was “Non-Toxic” and the Activity (Hepatitis B virus [21]) was “Active”. The EC50 (Hepatitis B virus [22]) was < 4 nM, the Activity (Hepatitis B virus [23]) was 101.5% and the Activity [24] was “Non-Toxic”. For the same compound, the Activity [25] was “Non-Toxic”, the Activity (Hepatitis B virus [26]) was 22.4% and the Activity [27] was “Non-Toxic”. The Activity [28] was “Non-Toxic”, the Activity (Hepatitis B virus [29]) was 7.5% and the Activity (Hepatitis B virus [30]) was “Active”. For the same compound, the Activity [31] was “Non-Toxic”, the Activity (Hepatitis B virus [32]) was 0% and the Activity (Hepatitis B virus [33]) was 98.2%.
